Assay: Human HepG2 cell viability assay in 384 well format
Assay type: toxicity, cell-based
Set-up: dose 125 nL, time 70.5 hour; cytotoxicity at 70.5 h: concentration not given beside the values
Details: HepG2 cells, read-out: Inhibition

Structure (SMILES) | cytotoxicity at 70.5 h [%]
CC(C)Oc1cccc(C(=O)C2CCCN(C(=O)c3cncs3)C2)c1 (stereo not given) | -10.7
CC(C)CC(=O)N1CC(=O)c2sc(Nc3ccc(F)cc3F)nc2C1 | 0.35
CS(=O)(=O)NCc1cc(-c2cc(F)cc(F)c2)nc(N2CCCC2)n1 | -12.8
Cc1csc2ncc(-c3ccnc(N4CCC[C@H](C(N)=O)C4)n3)c(=O)n12 | 14.4
CC(C)(C)Nc1nc(-c2cccnc2)c(-c2ccnc(NCCO)n2)s1 | -9.49
Cc1sc2ncc(-c3ccnc(NC4CCN(C)CC4)n3)c(=O)n2c1C | -2.25
CN(c1nccc(-c2cnc3sc(Cl)cn3c2=O)n1)C1CCCCC1 | -3.38
CCNc1nc(-c2cccnc2)c(-c2ccnc(NS(C)(=O)=O)n2)s1 | -8.33
C[C@H](NS(C)(=O)=O)C(=O)NCc1cc(-c2ccco2)n(CC(F)(F)F)n1 | -4.57
Fc1ccc(-c2n[nH]cc2-c2ccnc(NCCN3CCCC3)n2)cc1 | 24
COCCCNc1nccc(-c2c[nH][nH]c2=O)n1 | 22.8
CN1CCN(CC2CC2)C(=O)c2cnc(N3CCCC3)nc21 | 15.9
CN1CCN(CC2CC2)C(=O)c2cnc(N3CCCCC3)nc21 | 30.2
Cc1ncc(-c2ccnc(N3CCN(C)CC3)n2)c(-c2cccnc2)n1 | -13.1
CCOCC(=O)N1CCC(c2nccn2Cc2cscn2)CC1 | 21.4
CCc1ccc(CN(CC)Cc2ccc(S(=O)(=O)NC)cc2)cc1 | -1.74
CN(Cc1nc(-c2cccs2)no1)Cc1nc2c(s1)CCCC2 | -3.38
Cc1cccc(-n2cnnc2CCCN2CCOCC2)c1 | -7.97
CC(C)c1cc(C(=O)N2CC[C@@H](c3ccc4c(c3)OCO4)[C@H](O)C2)[nH]n1 | 3.33
COc1ccc(OC)c(-n2cnnc2COC(C)C)c1 | -0.141
COCCN1CCCC2(CCN(c3nccc4ccccc34)C2)C1=O (stereo not given) | 11.2
C[C@@H]1CN(c2nc(N)nc3c2CCC3)CC[C@@]1(O)C1CCC1 | 4.77
OCC1(CCOc2ccccc2)CCN(c2ccc(Cl)cn2)CC1 | -7.7
O=S(=O)(c1cccnc1)N1C[C@@H]2CC[C@H](C1)N(Cc1ccccc1)C2 | -6.7
CN(C)C[C@@H]1CN(C(=O)Cc2ccccc2)C[C@@H]1CO | -3.7
Cc1nc(CCN(C)C(=O)CCNC(=O)c2ccccc2F)no1 | -4.9
CN(Cc1ccccc1)CC1(O)CCCN(Cc2ccc(F)cc2)C1=O (stereo not given) | -3.64
CNc1ncc(CN(C)C(=O)[C@@]23CNC[C@@H]2CN(C(=O)C2CC2)C3)cn1 | -7.16

Structure (SMILES) | cytotoxicity at 70.5 h [%]
CN1CCC(c2nnc(CN3CCOCC3)n2C)CC1 | -24.5
C/C=C(\C)CN1CCC2(CCC(=O)N2OCc2ccccc2F)CC1 | -7.98
CSCC[C@@H](CO)n1ccnc1-c1nccn1C | -5.66
COc1ccc(-c2cn([C@H](CO)CC(C)C)nn2)cn1 | -4.51
CC1(C)CNC(=O)c2nc(CCN3CCOCC3)[nH]c2C1 | -7.47
CCC(Nc1cccc(OC)c1)C(=O)NCc1ccc2[nH]c(=O)[nH]c2c1 (stereo not given) | -11.6
CC(C)Cc1ncc2c(n1)CN(c1cc(NCCO)nc(N)n1)C2 | -8.13
CCC(C)N(Cc1ccncc1)Cc1cccc(Cn2cccn2)c1 (stereo not given) | -6.76
COc1ccc(-c2n[nH]cc2CN(C)Cc2ccoc2)c(F)c1 | -1.92
Cc1cc(C(=O)N2CCC3(CC(=O)NC3=O)C2)c(-c2ccccc2)o1 (stereo not given) | 17.4
CN1CCN2CCN(Cc3ccccc3Cn3cccn3)CC2C1 (stereo not given) | -0.968
COc1cccc(-c2n[nH]cc2-c2nc(CN3CCCC3)no2)c1 | 1.58
O=C(N[C@@H]1CCNC[C@H]1O)c1cc(F)cc(Cl)c1 | -1.46
O=C(CN1CCOc2ccccc2C1)NCc1cc2n(n1)CCNC2 | -2.02
COC1CCN(S(=O)(=O)N2CC(c3ccccc3)C(C)(C)C2)CC1 (stereo not given) | 27.1
CC(C)Nc1ccc(-c2ccnc3c2ccn3C)nn1 | 15.5
CC(C)(C)c1ncc(C(=O)NCCSc2ccccn2)c(O)n1 | 30.9
O=C(N[C@H]1CC[C@H](O)CC1)c1ccc2nc(-c3ccccc3)cn2c1 | -7.18
COc1ncccc1CN1CCN(c2noc(C(C)C)n2)CC1 | 3.17
Cc1nc(N2C[C@@H](CN3CCCN(C)CC3)[C@@H](CO)C2)c2sccc2n1 | 27.9
O=C1CN(C(=O)CC2c3ccccc3CCc3ccccc32)CCN1 | 2.75
Cc1nccn1CCC1CCN(C2CCC3(CCNCC3)CC2)CC1 | 13.6
CSCC1CCCN(c2ncnc3oc(C)nc23)C1 (stereo not given) | -9.81
COc1cccc(Cn2cc(C3=CCN(CCO)CC3)cn2)c1 | -11
COc1ccccc1N1CCN(C(=O)Cn2nc(C)c(C)c2C)C(C)C1 (stereo not given) | -3.01
CN(C)CCNc1cc(-c2ncccc2O)c2cc[nH]c2n1 | -7.75
c1ccc(CCc2n[nH]c(C3CCC3)n2)cc1 | -2.16
